Measured values published in PubChem BioAssay (NCI).
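1) Cells in 96-well plates. 2) Compound, 48 h, 5 concentrations. 3) Linear interpolation between surrounding doses. 4) Unreached endpoint = highest concentration. GI50 = concentration required for 50% inhibition of growth. Definition used: TGI = concentration required for complete inhibition of growth.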

Columns and labels:
Experiment in all cases: inhibition of tumour cell growth, NCI panel, 48 h
[1] = test system: SR leukemia
[2] = test system: ACHN renal
[3] = test system: NCI-H522 lung
[4] = test system: HOP-62 NSCLC
[5] = test system: SN12C renal
[6] = test system: COLO 205 colon
[7] = test system: OVCAR-5 ovarian
[8] = test system: HOP-92 NSCLC
[9] = test system: SNB-19 CNS
[10] = test system: NCI-H226 lung

Structure (SMILES) | TGI [1] | TGI [2] | TGI [3] | TGI [4] | TGI [5] | TGI [6] | TGI [7] | TGI [8] | TGI [9] | GI50 [2] | GI50 [3] | GI50 [4] | GI50 [10] | TGI [10] | GI50 [5] | GI50 [6] | GI50 [7] | GI50 [8] | GI50 [9]
CC(=O)OCC1OC(OCC2OC(N3C(=S)N[C@H]([C@@H](O)[C@H](O)[C@H](O)CO)[C@H]3O)C(OC(C)=O)C(OC(C)=O)C2OC(C)=O)C(OC(C)=O)C(OC(C)=O)C1OC(C)=O (some centres not stated) | > 100 µM | > 100 µM | > 100 µM | > 100 µM | > 100 µM | > 100 µM | > 100 µM | > 100 µM | > 100 µM |  |  |  |  |  |  |  |  |  | 
CC(=O)NC1C(OCc2ccccc2)OC(CO)C(O)C1OCC(=O)NC(C)C(=O)NC(CCC(=O)NCCCCCC(=O)Nc1ccc2c(c1)CN1C(=O)c3ccccc3C1=N2)C(N)=O (configuration not stated) | 42.5 µM | > 100 µM |  | > 100 µM | > 100 µM | > 100 µM | > 100 µM | 90.9 µM | > 100 µM |  |  |  |  |  |  |  |  |  | 
COc1ccc(OC)c(CNc2ccc(O)c(C(=O)NCCc3ccc(F)cc3)c2)c1 | 12.1 µM | > 100 µM | 7.56 µM | 21.4 µM | 71.9 µM | 40.2 µM | 64.9 µM |  | 54.1 µM |  |  |  |  |  |  |  |  |  | 
Oc1c(I)cc(I)cc1CNCCCN(Cc1ccccn1)Cc1ccccn1 |  | 1.65 µM | 4.48 µM | 2.35 µM | 2.12 µM | 5.99 µM | 2.11 µM | 2.48 µM | 5.5 µM | 0.912 µM | 1.34 µM | 1.02 µM | 0.902 µM | 2 µM | 0.99 µM | 1.65 µM | 0.953 µM | 0.985 µM | 1.49 µM
C=C(C)CC1=C(C(=S)NCCO[Si](C)(C)C(C)(C)C)C(OCC)(OCC)C1=O |  | 33.8 µM | 29 µM | 34.3 µM | 42.2 µM | 75 µM | 28.5 µM | > 100 µM | 38.3 µM |  |  |  |  |  |  |  |  |  | 
CC(O)(c1ccccc1)c1nccc2ccccc12 (configuration not stated) |  | > 100 µM | > 100 µM | > 100 µM | > 100 µM | > 100 µM | > 100 µM | 95.2 µM | > 100 µM |  |  |  |  | > 100 µM |  |  |  |  | 
CC(=O)c1ccc2c(c1)oc(=O)n2CCN(C)C | > 100 µM | > 100 µM |  | > 100 µM |  | > 100 µM | > 100 µM |  |  |  |  |  |  | > 100 µM |  |  |  |  | 
Cc1ccc(S(=O)(=O)n2cc(-c3cnc(N)c(Br)n3)c3ccccc32)cc1 | 10.2 µM | > 89.4 µM |  | > 100 µM | 11.9 µM | 10 µM | > 77.1 µM | > 27.5 µM | > 46.1 µM |  |  |  |  | > 100 µM |  |  |  |  | 
FC1CCN(C2(c3cccs3)CCCCC2)CC1 |  | > 100 µM | > 100 µM | > 100 µM | > 100 µM | > 100 µM | > 100 µM | > 100 µM | > 100 µM |  |  |  |  | > 100 µM |  |  |  |  | 
CC(=O)O[C@H]1CC[C@@]2(C)C(=CC[C@@H]3[C@@H]2CC[C@]2(C)c4nc(N)c(C#N)cc4C[C@@H]32)C1 |  | > 100 µM | > 100 µM | 46.5 µM | > 100 µM | > 100 µM | > 100 µM | > 100 µM | > 100 µM |  |  |  |  | > 100 µM |  |  |  |  | 
Cc1cc2nc3n(c2cc1C)C(c1c(F)cccc1F)SC3 (configuration not stated) | 42.9 µM | 40.6 µM | 44.1 µM | 72 µM | 41.9 µM | 44.6 µM | 43 µM |  | 53.4 µM |  |  |  |  | 23.8 µM |  |  |  |  | 
